According to patent US20180246105A1, “IMMUNOLOGICAL TEST KIT FOR […] EFFICACY AND STORAGE METHOD THEREOF” (priority 2015, published 2018):
“Also recorded” adds a separate entry of the source.

Columns and labels:
CD4+ T cells = test: Clinical cellular immune detection (10-day enrichment), CD4+ T cells re-stimulated with HBV-specific peptides; type: in vivo, human
Experimental: (§1) 7) Cell seeding and peptide stimulation. PBMC was re-suspended with 10% FBS-RPMI-1640 and seeded into 12-well plate with 1mL/well. Specific peptides were added at the same time with 1 μL per well. The plate was then incubated in 5% CO2, 37° C.
(§2) After five days incubation, 50 μL sample was taken from each well and stored at −80° C. Then added 500 ul 10% FBS-RPMI-1640 contained […], continued for another five days incubator.
(§3) 2) Stimulation. After 10 days enrichment, the cells in 12-well plate were transferred into a 1.5 mL EP tube. Centrifuge with 1500 rpm, 3 min. Discard supernatant and re-suspend with FBS-RPMI-1640 prepared in step 1. The suspended cells were then seeded into a 96-well plate, the plate was coated with PMA, N, CMV, S4, S8 and MIX, 90 uL/well with three repetitions. Then the plate was incubated in 5% CO2, 37° C. for 8 hours.
(§4) 3) Storage. After 8 hours incubation, the 96-well plate was set for centrifuge with 1500 rpm, 3 min. Discard supernatant and re-suspend with 200 μL cell freezing medium (10% DMSO with 90% FBS). Disassociation by pipetting 3 to 5 times and sealed with parafilm. And then set for gradient cryopreservation with 4° C. for 1 hour, at −20° C. for 40 min and at −80° C. thereafter.
(§5) 3) Cell surface marker staining Panel 1, CD4-APC; Panel 2, CD8-APC; Panel 3, CD4-FITC. The dose of antibody was as the recommended dose in the reagent manual. Plate was centrifuged with 1500 rpm, 3 min. Discard supernatant and re-suspend with staining buffer in 4° C. for 30 min.
6) Intracellular staining. Panel 1/Panel 2, IFN-g-PE, TNF-α-BV421, IL-17-APC/cy7, IL-2-FITC; Panel 3, FOXP3-APC, IL-4-BV421, IL-10-PE. The dose of antibody was at the recommended dose in the reagent manual. Re-suspend the cells with staining buffer in room temperature for 1.5 hour with shake.
8) FACS detection. The detection was conducted with BD LSR Fortessa (BD Bioscience, USA). The voltage and compensation may be well adjusted. The result data was analyzed with FlowJo v7.6.3, and the results were shown as positive percentage.
Antigen specific cellular immunity may play an important role in chronic HBV treatment. […] Peripheral Blood mononuclear cells (PBMC) were isolated and re-stimulated with HBV-specific polypeptide for 10-day enrichment. After the cell was collected and re-stimulated by HBV-specific polypeptide for 8 hours, the levels of cytokines in CD4+ and CD8^+ T lymphocytes were detected by flow cytometry. IL-2, IL-4, IL-10, IL-17a, Foxp3, IFN-γ and TNF-α were analyzed in CD4^+ T cells, whereas IL-2, IL-17a, IFN-γ and TNF-α were analyzed in CD8^+ T lymphocyte.

[1] = Clinical trial ChiCTR-TRC-13003254: serum ALT kinetics; type: in vivo, human; conditions: 48-week treatment and 72-week follow-up
Experimental: HBV DNA was not detected or the level decreased at least 2 log 10 IU/mL compared with the basement on weeks 12, 24, 36, 48 and 72; The AST and ALT level on weeks 12, 24, 36, 48 and 72; The histological response, with the inflammation and fibrosis should rate under level 1 of the liver on week 48.
Routine biochemistry (liver function, renal function); Blood cell analysis; Serum HBV DNA detection; HBVM detection; All the detection were conducted in the central laboratory of Huashan Hospital.

CD8+ T cells = test: Clinical cellular immune detection (10-day enrichment), CD8+ T cells re-stimulated with HBV-specific peptides; type: in vivo, human
Experimental: as §1, §2, §3, §4, §5
6) Intracellular staining. […]
8) FACS detection. […] The result data was analyzed with FlowJo v7.6.3, and the results were shown as positive percentage.
Antigen specific cellular immunity may play an important role in chronic HBV treatment. […] After the cell was collected and re-stimulated by HBV-specific polypeptide for 8 hours, the levels of cytokines in CD4+ and CD8^+ T lymphocytes were detected by flow cytometry. IL-2, IL-4, IL-10, IL-17a, Foxp3, IFN-γ and TNF-α were analyzed in CD4^+ T cells, whereas IL-2, IL-17a, IFN-γ and TNF-α were analyzed in CD8^+ T lymphocyte.

[2] = system: T cell subsets (Th1, Th2, Th17, Treg, Tc1, Tc17); test: T-lymphocyte subset proportions and subset ratios during treatment; type: in vivo, human
Description: From the previous results, a T cell responds heterogeneously. In order to intuitively understand the dynamic changes of different T cell subsets, IFN-γ^+ CD4^+ T cells were assigned into the Th1, IL-4^+ CD4^+ T cells as TH2, IL-17a producing CD4^+ T cells as TH17, Foxp3^+CD4^+ T cells Treg, and the CD8^+ T cells secreting different cytokines were classified as TC1 and […] by the same method.
In order to further obtain the effect of different therapies on cellular immunity, the TH1/Treg, Th2/Treg, Th17/Treg, and Th1/th2 was analyzed and plotted.

HBsAg = conditions: after five years of treatment; HBeAg positive CHB patients; cited from earlier work
[3] = 0 to 72 weeks, significant changes at 24th week

Structure (SMILES) | Foxp3 expression in CD4+ T cells (Treg), dynamics (CD4+ T cells; [3]) | IL-10 secretion in CD4+ T cells, dynamics (CD4+ T cells; [3]) | Foxp3 expression in CD4+ T cells (Treg), dynamics (CD4+ T cells; 0 to 72 weeks, significant changes at 24th week, listed as Adv) | IL-4 in CD4+ T cells, dynamics (CD4+ T cells; S-polypeptide pool stimulation) | IFN-γ expression in CD4+ T cells, dynamics (CD4+ T cells; S-polypeptide pool stimulation, 0 to 72 weeks) | IL-2 and TNF-α in CD4+ T cells, dynamics (CD4+ T cells; S-polypeptide pool stimulation, course of treatment) | IL-17A in CD4+ T cells, dynamics (CD4+ T cells; peptide pool stimulation, course of treatment) | ALT level, change [1] | IFN-γ secreted by CD8+ T cells, dynamics (CD8+ T cells; HLA-A2+ or HLA-A2− S polypeptide re-stimulation, 0 to 72 weeks) | IL-17A of CD8+ T cells, dynamics (CD8+ T cells; S polypeptide pool stimulation) | IL-2 and TNF-α secreted by CD8+ T cells, dynamics (CD8+ T cells; S polypeptide re-stimulation, course of treatment) | change of TH1, TH2, TH17, TC1 and Tc17 cell proportions ([2]; 0 weeks to 72 weeks) | proportion of Treg cells in total T cell subsets ([2]; 48 weeks) | proportion of Treg cells in total T cell subsets ([2]; 72 weeks, follow-up endpoint) | proportion of Treg cells in total T cell subsets ([2]; baseline) | patients with HBsAg serotype transformed (HBsAg)
CC(C)(C)C(=O)OCOP(=O)(COCCn1cnc2c(N)ncnc21)OCOC(=O)C(C)(C)C [ADV, Adefovir Dipivoxil] | not significantly changed; also recorded: no significant fluctuation; also recorded: did not show significant fluctuation | no significant change | did not change significantly; also recorded: did not show significant fluctuation | no difference | no significant difference | no significant difference | no significant change | did not change significantly | no difference | no significance | No significant difference | no significant changes | 25.8% | 37.8% | 37.7% | 
C[C@H](Cn1cnc2c(N)ncnc21)OCP(=O)(O)O [Tenofovir] |  |  |  |  |  |  |  |  |  |  |  |  |  |  |  | 23 of 266
